Reference: a melting point compilation (Tetko et al.; mined from patent text by program, amines drawn as free bases though some values may be those of a salt)

Row | melting point [°C] | Structure (SMILES)
1 | 186 to 190 | CCc1cnc(N2CCC(c3nc4cc(-c5ccc(S(C)(=O)=O)cc5F)ccc4[nH]3)CC2)nc1
2 | 109 to 110 | O=Cc1c(Cl)cc(CO)cc1Cl
3 | 164 to 166 | CCNc1nc(-c2cccc([N+](=O)[O-])c2)c2cc(OC)c(OC)cc2n1
4 | 102 to 105 | COc1cccc(-n2nc(-c3ccccc3)c3cccnc32)c1
5 | 101 to 103 | O=c1sc2ccccc2n1CO
6 | 142 to 143 | C=CCn1cc(Br)cnc1=O
7 | 241 to 242 | O=C(CSc1nc2ccccc2s1)c1ccc2[nH]c3ncc(Cl)cc3c2c1
8 | 118 to 120 | CC(C)CS(=O)(=O)c1ccc(N)c(S(=O)(=O)CC(C)C)c1
9 | 176 to 178 | Cc1ncnc(-c2cc(O)c(Cl)cc2F)c1C
10 | 202 to 203 | CC(=O)OC1Cc2ccc(F)cc2/C1=C/C(N)=O (stereo not drawn)
11 | 185 to 187 | CC1(C)CC(C)(C)c2cc(NC(=O)c3ccc(O)cc3)ccc21
12 | 254 to 255 | COc1cc(C#N)cc(-c2ccc3c(c2)C(C)(C)OC(=O)N3)c1
13 | > 200 | CSc1nc(N2CCc3ccccc3CC2)c(C#N)c2nncn12
14 | 191 | c1ccc2c(c1)CCn1cnnc1C2
15 | 266 to 269 | COC(=O)c1ccc(C=Cc2ccc([N+](=O)[O-])c(C#N)c2)cc1
16 | 227 to 232 | CCOC(=O)c1cn(C2CC2)c2c(CN3CCCC3)c(N3CCOCC3)c(F)cc2c1=O
17 | 148 to 150 | CC(C)n1nc(-c2nc(Sc3ccc(F)cc3)c(N)nc2-c2ccccc2)ccc1=O
18 | 93 to 94 | CCOCc1cc2cc(Br)ccc2oc1=Nc1cccc(OC)c1
19 | 284 to 290 | CCOC(=O)c1c(-c2ccc(O)cc2)c(C#N)c(=O)n2ccccc12
20 | 200 to 202 | COc1ccc(Cl)cc1Nc1c(C#N)cnc2cc(OC)c(OC)cc12
21 | 131 to 144 | CCCS(=O)c1csc(C(=O)OC)c1S(N)(=O)=O (stereo not drawn)
22 | 125 to 126 | Cc1cn(-c2ccc(NC(=O)c3ccc(C)c(C#Cc4ccc(NC5CC5)nn4)c3)cc2C(F)(F)F)cn1
23 | 139 to 140 | Cc1nc(-c2ccc(C(F)(F)F)cc2)sc1CSc1ccc2c(c1)CC(C(=O)O)CO2 (stereo not drawn)
24 | 204 to 205 | COc1cc(Cc2cnc(N)nc2N)cc(Br)c1OC

Row | melting point [°C] | Structure (SMILES)
25 | 198 to 200 | O=C(O)Cc1ccc2c(c1)sc1cc(Cl)ccc12
26 | 225 to 226 | COc1ccccc1Oc1c(NS(=O)(=O)c2ccc(C)cn2)nc(-c2ccncc2)nc1OC
27 | 165 | CC(C)(C)NCC(O)COc1ccc2c(=O)cc(-c3ccc(O)c(O)c3)oc2c1 (stereo not drawn)
28 | 74 to 76 | Cc1ccc2cc(C)[nH]c2c1
29 | 150 to 152 | CC1(C(F)(F)F)CC(=O)CC(=O)C1
30 | 230 to 233 | Cc1ccc2c(c1)c1c(n2C(=O)c2ccc(F)cc2)CCC(C(=O)O)C1 (stereo not drawn)
31 | 94 to 100 | CCCC[C@H](NC(=O)[C@H](CC(C)C)NC(=O)c1ccc(F)c(F)c1)C(=O)CSCc1ccco1
32 | 61 to 61.7 | FC(F)(F)c1cc(C2CCCO2)c2cccc(C(F)(F)F)c2n1 (stereo not drawn)
33 | 64 to 66 | O=C(Nc1ccc(OCCCc2cccnc2)c2ccccc12)c1cc(F)cc(N2CCOCC2)c1
34 | 200 to 201 | COc1cc(NC(C)=O)c(Cl)cc1C(=O)NN1CCN2CCCCC2C1 (stereo not drawn)
35 | 52 to 53 | CC(C)C(O)(Cc1ccccc1)Cc1ccccc1
36 | 208 | O=C(O)c1ccccc1NCc1ccncc1
37 | 189 | O=C(Nc1ccc(CNc2nc(NC3CC3)nc3ccccc23)cc1)c1ccc(F)cc1
38 | 131 to 132 | O=C(NCc1cccs1)n1cc(F)c(=O)[nH]c1=O
39 | 206 to 208 | O=c1[nH]c2ccc(Cl)cc2n1C1CCCCC1
40 | 151 to 153 | COc1ccc(N(N=Cc2ccccc2)C(=O)c2ccccc2)cc1
41 | 75 to 77 | O=Cc1ccc(-c2ccc(-c3ccco3)o2)o1
42 | 204 | COc1ccc(S(=O)(=O)C2(C(=O)O)CCN(C)CC2)cc1
43 | 84.5 | CCOc1ccc(C=CC(=O)c2c(OCC)cc(OCC)cc2OC(=O)CC)cc1
44 | 166 to 169 | CCCCCOC(=O)n1c(N)nc(C#N)c1C#N
45 | 225 to 226 | Cn1cc(Nc2nc(N3CCOCC3)nc(-n3c(C(F)F)nc4ccccc43)n2)cn1
46 | 92 | C=CCC(CCC=NO)C1=C(O)CC(c2ccc(N)cc2)CC1=O (stereo not drawn)
47 | 160 | CC(C)(C)NC(=O)c1ncccc1CC(=O)C1CCC(C(=O)O)CC1 (stereo not drawn)
48 | 90 | Cc1ccc(N)c(S)c1

Row | melting point [°C] | Structure (SMILES)
49 | 390 | O=C(O)c1ccc2ccc3ccc(C(=O)O)cc3c2c1
50 | 109 to 110 | COc1cc2c(cc1OC)C(c1ccccc1)N(C(=O)NCCN(C(C)C)C(C)C)CC2 (stereo not drawn)
51 | 187 | COc1ccc(Cn2nc(CO)c3cc(OC)c(OC)cc32)cc1OC
52 | 94 to 95 | O=C(Nc1ccc2c(c1)COCC2)OCc1ccccc1
53 | 168 to 170 | CCCn1nc2c(N)nc3c(c2c1CCCc1cc(-c2cccnc2)no1)CCCC3
54 | 88.5 to 90 | COC(=O)C1CCCN1C(=O)c1ccccc1 (stereo not drawn)
55 | 220 | Oc1ccc(CNc2n[nH]c3ncnc(Nc4cccc(Cl)c4)c23)cc1Cl
56 | 115 | COc1ccc([C@]2(c3ccc(F)c(-c4cncnc4)c3)N=C(N)N(C)C2=O)cc1C
57 | 77 to 78 | CCOC(=O)c1nn(-c2cccc(C(F)(F)F)c2)c2c1CCCC2
58 | 138 to 140 | Cc1cc2c(Oc3ccccc3Cl)cccc2[nH]1
59 | 207 to 210 | CS(=O)(=O)Nc1ccc(C(=O)c2[nH]c3cc(Cl)ccc3c2CC(=O)O)cc1
60 | 216 to 219 | Cc1nnnn1-c1ccc(/C(=C\C2CCCC2)C(=O)O)cc1Cl
61 | 88 to 89 | O=[N+]([O-])c1ccccc1-c1nnc(-c2ccc(C3OCCO3)cc2)o1
62 | 76 to 78 | CCC(=O)CCCCCCCc1ccc(O)c(O)c1
63 | 180 | O=C(Nc1ccc(N2CCN(Cc3ccccc3)CC2)cc1)c1ccccc1-c1ccc(C(F)(F)F)cc1
64 | 130 | CC1(C)CCC(C)(C)c2cc(C#Cc3ccc(C=O)cc3)ccc21
65 | 217 to 219 | Cc1nc2c(OCc3c(Cl)ccc([N+](=O)[O-])c3Cl)cccn2c1Br
66 | 207 to 210 | Cc1cc(Cl)ccc1N1C(=O)c2ccc(Br)cc2C1=O
67 | 165 | COc1ccc(-c2cn(C)cc(-c3ccccc3)c2=O)cc1
68 | 100 to 108 | O=C(O)c1ccc(OCCCCCCC2CC2)c(F)c1F
69 | 157 to 162 | Cc1sc2c(Br)c3ccccc3c(-c3cc(Br)c(O)c(C(C)C)c3)c2c1C
70 | 147 to 149 | CN(c1ccccc1)S(=O)(=O)c1ccc(NC(=O)C(C)(O)C(F)(F)F)cc1 (stereo not drawn)
71 | 258 | NS(=O)(=O)c1cccc(NC(=O)c2cnn3c(C(F)F)cc(-c4ccc(C(F)(F)F)cc4)nc23)c1
72 | 230 to 231 | CNC(=O)c1cccc(NC(=O)Cc2c(C)ccc3ccccc23)c1

Row | melting point [°C] | Structure (SMILES)
73 | 130 to 132 | C=CCN1CCN2c3ccccc3Cn3cccc3C2C1 (stereo not drawn)
74 | 127 to 128 | COC(=O)N1CCc2onc(O)c2CC1
75 | 121 to 123 | CC(C)(C)OC(=O)Nc1cccc(C2(O)COC2)c1
76 | 231 to 234 | COc1cc2c(c3c1OC(C)(C)C3)C(c1ccc(=O)n(-c3cccc(-c4ccccn4)n3)c1)=NC(C)(C)C2
77 | 145 to 146 | COC(=O)c1ccc2occ(-c3ccc(S(C)=O)cc3)c2c1 (stereo not drawn)
78 | 250 to 252 | CCOC(=O)c1nnc2ccc(C(C)=O)cc2c1O
79 | 150 to 152 | OC1(c2ccc(C(F)(F)F)cc2)CCN(CCCc2noc3cc(F)ccc23)CC1
80 | 158 to 159 | COC(=O)C(C)(C)n1c(=O)[nH]c2ccccc2c1=O
81 | 205 to 207 | OC1CCN(Cc2nc(-c3ccc4c(c3)Nc3ccccc3S4)cs2)CC1
82 | 114 to 115 | Cc1ccc(S(=O)(=O)N2CCc3ccccc3C(Oc3ccc(C(F)(F)F)cc3)C2)cc1 (stereo not drawn)
83 | 255 to 256 | C[C@H](Cn1ncnn1)n1cnc2cc3c(=O)n([C@H](C)Cn4ncnn4)cnc3cc2c1=O
84 | 172 to 175 | O=C1SC(CCCC#Cc2ccc(Cl)cc2)(S(=O)(=O)c2ccc(I)cc2)C(=O)N1Cc1ccc([N+](=O)[O-])cc1 (stereo not drawn)
85 | 222 to 224 | Cc1ccccc1C=C1CCn2c1nc1ccc(CO)cc1c2=O
86 | 71 to 73 | CC(C)Cn1nc(OCCCc2ccc(OC(C)C)cc2Oc2ncc(C(F)(F)F)cc2Cl)cc1CCC(=O)O
87 | 125 to 127 | O=C(c1ccc(O)cc1)c1ccon1
88 | 284 to 286 | COC(=N)c1ccc(C(=O)O)cn1
89 | 260 to 264 | Cc1cc2ccccn2c1C(=O)C1CCc2nc[nH]c2C1 (stereo not drawn)
90 | 216 to 218 | CC=CC=C1SC(=S)N(CC(=O)O)C1=O
91 | 217 to 218 | CCn1cc(C(=O)O)c(=O)c2cc(F)c(N3CCC(CN)C3)nc21 (stereo not drawn)
92 | 174 to 176 | Cc1cc(=O)c(C(=O)Nc2cccc(C)c2C)c(C)o1
93 | > 95 | CN1CCC(c2c[nH]c3ccc(CCS(N)(=O)=O)cc23)CC1
94 | 230 | CCOC(=O)c1nc2cc(C(C(C)C)n3ccnc3)ccc2[nH]c1=O (stereo not drawn)

Row | Structure (SMILES) | melting point [°C]
95 | Fc1ccc2[nH]cc(C3=CCN(CC4COc5ccc6ncncc6c5O4)CC3)c2c1 (stereo not drawn) | 233 to 235
96 | O=C(Nc1ccc(Cl)nc1)c1cc2cc(F)ccc2n1Cc1ccncc1 | 244 to 246
97 | Cc1ccccc1-n1c(CC(O)c2ccccc2)nc2ccccc2c1=O (stereo not drawn) | 119
98 | O=C(O)C(=O)c1cn(Cc2ccc(F)cc2)c2ccc(OCCc3ccc(F)cc3)cc12 | 171 to 173
99 | CCC1CC2C3CCC4=CC(=O)CCC4C3CCC2(C)C1OC(=O)CO (stereo not drawn) | 156 to 157
100 | c1ccc(C(c2ccccc2)(c2ccccc2)N2CCCCC2)cc1 | 156 to 158
101 | CNC(=O)Oc1ccc(NC(=O)C(F)(F)Cl)c(C)c1 | 156 to 158
102 | Brc1c(NC2=NCCN2)ccc2ncn(CC3CCCCC3)c12 | 153 to 155
103 | O=C(O)CCSC1c2cccc(O)c2C(=O)c2c(O)cccc21 | 152 to 153
